This is an account of results in patent US7485759B2, “Minimization of ligand degradation products, or reversion of same to useful phosphine ligands” (Dow Technology Investments LLC, priority 2003, dated 2009).

Read-outs that look alike come from different tables or passages of the source.

A short description of data set [1]: Hydrocarbonylation of 2-pentenal with different ligands; ligand converted to phosphonium ion ligand degradation product by 31P-NMR (Example 4). The data set is classed as physicochemical. The settings on record: ligand converted to phosphonium ion degradation product as percentage of total ligand; 3 hours, 70° C., 300 psig CO, 600 psig H2, 1570 ppm Rh, 4.6 mol ligand/mol Rh, 2-pentenal in 1-butanol. The procedure:
In a series of hydroformylation reactions (4A-D) 2-pentenal (50 mmols) was subjected to hydrocarbonylation conditions for 3 hours using a rhodium catalyst promoted with a variety of ligands having different cone angles and pKa's. Hydrocarbonylation conditions included: 70° C., 300 psig (2,068 kPa) carbon monoxide, 600 psig (4,136 kPa) hydrogen, 1570 ppm Rh, 4.6 mol ligand/mol Rh, and 40 wt % initial 2-pentenal in 1-butanol solvent. The source of Rh was Rh4(CO)12. During the course of the reaction 2-pentenal was hydrogenated to valeraldehyde and then to pentanol. After the reaction was completed, the reaction fluid was examined by P^31-NMR spectroscopy to determine the amount of ligand converted to phosphonium ion ligand degradation product, as a percentage of the total ligand in solution.

The nature of data set [2]: Ligand basicity measured by pKa. It is filed as physicochemical. The settings on record: est = estimated value. The procedure:
Basicity (electronic effect) measures the reactivity of a ligand towards a proton. Ligands with lower attraction to binding a proton are less basic, and therefore, generally of lower nucleophilicity. […] Generally, basicity is measured by pKa, known to those of skill in the art, as described in Organometallics, (1989) 8(1), 1, and by Wm. A. Henderson, Jr. and C. A. Streuli, Journal of the American Chemical Society, (1960), 82, 5791-5794, and by Tim Allman, et al., Canadian Journal of Chemistry (1982), 60(6), 716-722, all references incorporated herein by reference. Ligands having a pKa typically of less than about 8.3 provide for reduced formation of phosphonium ion ligand degradation products.

For data set [3] the following is noted: cited from earlier work.
The nature of data set [4]: Batch hydrocarbonylation of 1,3-butadiene; phosphonium salts followed by 31P-NMR and ligand usage (Examples 1-3). It is filed as physicochemical. The procedure: A batch hydrocarbonylation of 1,3-butadiene (BD) to pentenols was conducted at the following conditions: 70° C., 300 psig (2,068 kPa) carbon monoxide, 600 psig (4,136 kPa) hydrogen, 1570 ppm Rh, 4.6 mol ligand/mol Rh, and 40 wt % initial BD in 1-butanol solvent. Trioctylphosphine was used as ligand, and the Rh source was Rh4(CO)12. Multiple samples were taken from the reactor and analyzed by phosphorus-31 nuclear magnetic resonance spectroscopy (^31P-NMR) to follow the concentration of phosphonium ion ligand degradation products (phosphonium salts) with time. The concentration of phosphonium salts increased between t=0 and t=60 min, and their concentration reached a maximum of 0.008 mol/L at t=60 min. […] The concentration of 2-pentenal (α,β-unsaturated aldehyde) also reached a maximum at 60 min.
The BD conversion at the time when the concentrations of phosphonium salts and α,β-unsaturated aldehyde were at their maximum was 39%. Had the reaction been stopped at 39% conversion of BD, the ligand usage (lost) to phosphonium salts would have been 65 g/L/day. However, the reaction was continued until 480 minutes to allow for the 2-pentenal to react away under normal reaction conditions. […] The BD conversion at t=480 min was 98%. When the reaction was stopped at 98% BD conversion, the ligand usage (lost) to phosphonium salts was less than 1 g/L/day.
A batch hydrocarbonylation of 1,3-butadiene (BD) was conducted to partial conversion followed by stripping of the reaction product solution with hydrogen to hydrogenate residual α,β-unsaturated aldehyde (2-pentenal). The batch hydrocarbonylation was conducted at the following conditions: 70° C., 300 psig (2,068 kPa) carbon monoxide, 600 psig (4,136 kPa) hydrogen, 1590 ppm Rh, 4.5 mol ligand/mol Rh, and 40 wt % initial BD in 1-butanol solvent. The ligand used was trioctylphosphine, and the Rh source was Rh4(CO)12. The reaction was conducted for 130 minutes and reached 67% conversion BD. At that time, the concentration of phosphonium salts and α,β-unsaturated aldehyde (2-pentenal) were both about 0.006 mol/L. If no attempt had been made to revert the phosphonium salts at this point, the ligand usage (lost) to phosphonium salts would have been 25 g/L/day. The reactor was vented down to atmospheric pressure to remove most of the syn-gas (CO+H2). The reactor was then re-pressurized back to 900 psig (6,205 kPa) with pure hydrogen. […] Hydrogen was continuously sparged through the reactor at a rate of 0.5 standard cubic feet per hour (SCFH) during the time when the reactor was at 120° C. and 900 psig (6,205 kPa). After 10 minutes of stripping with hydrogen, all phosphonium salts were undetectable by ^31P-NMR, and the α,β-unsaturated aldehyde was undetectable by gas chromatography. The concentration of both of these species remained at essentially “0” for the remainder of the experiment. The ligand usage (loss to phosphonium salts) was reduced from 25 g/L/day to less than 1 g/L/day by reverting the phosphonium salts by hydrogenating the residual α,β-unsaturated aldehyde with hydrogen.
A batch hydrocarbonylation of 1,3-butadiene (BD) was conducted to partial conversion followed by stripping of the reaction product solution with nitrogen to remove residual α,β-unsaturated aldehyde (2-pentenal) by volatilization at […]. The batch hydrocarbonylation was conducted at the following conditions: 70° C., 300 psig (2,068 kPa) carbon monoxide, 600 psig (4,136 kPa) hydrogen, 1590 ppm Rh, 4.6 mol ligand/mol Rh, and 40 wt % initial BD in 1-butanol solvent. The ligand used was trioctylphosphine, and the Rh source was Rh4(CO)12. The reaction was conducted for 120 minutes and reached 72% conversion of BD. At that time, the concentration of phosphonium salts and α,β-unsaturated aldehyde were about 0.005 and 0.016 mol/L, respectively. If no attempt had been made to revert the phosphonium salts at this point, the ligand usage (lost) to phosphonium salts would have been about 20 g/L/day. […]

Turning to `CCCCP(CCCC)C1CCCCC1` [Cyclohexyldi-n-butylphosphine], in data set [1], the “% Phosphonium Salt (by wt.)” value stood at 9.8%. Moreover, in data set [2], the pKa is about 8.9.
On to `CC(C)CP(CC(C)C)CC(C)C` [Tri-isobutylphosphine], for which the “% Phosphonium Salt (by wt.)” value in data set [1] is listed as 0.3%. Also, the PKa in data set [3] was 7.97; in data set [3] (listed as tri-isobutylphosphine), “less than 8.3”.
Turning to `CCCCCCCCP(CCCCCCCC)CCCCCCCC` [tri-n-octylphosphine], the pKa in data set [2] is at least 8.3. The “ligand usage (lost) to phosphonium salts” value is on record as 65 g/L/day in data set [4] (Example 1, had the reaction been stopped at 39% conversion of BD); “less than 1 g/L/day” in data set [4] (Example 1, reaction stopped at 98% BD conversion); 25 g/L/day in data set [4] (Example 2, 67% conversion BD, if no attempt made to revert); “about 20 g/L/day” in data set [4] (Example 3, 72% conversion of BD, if no attempt made to revert). The “concentration of phosphonium salts” value is given as 0.008 mol/L in data set [4] (Example 1, maximum at t=60 min, 39% BD conversion, 70° C.); 0.0005 mol/L in data set [4] (Example 1, t=480 min, 98% BD conversion); “about 0.006 mol/L” in data set [4] (Example 2, 130 minutes, 67% conversion BD, before reversion); “about 0.005 mol/L” in data set [4] (Example 3, 120 minutes, 72% conversion of BD, before reversion); 0.0005 mol/L in data set [4] (Example 3, after 20 minutes of stripping with nitrogen, 120° C., 900 psig). Moreover, in data set [4] (Example 2, after 10 minutes of stripping with hydrogen, 120° C., 900 psig), the “phosphonium salts by 31P-NMR” value was “undetectable”. Further, the “ligand usage (loss to phosphonium salts)” value in data set [4] (Example 2, after reversion with hydrogen) is recorded as “less than 1 g/L/day”; in data set [4] (Example 3, after stripping with nitrogen) it was 2 g/L/day.

One may read the pKa as the negative logarithm of the acid dissociation constant.
